Test results from PubChem BioAssay AID330 (DTP/NCI, 2004).
“And” between values parts separate entries of the source, which are not always exact repeats. Equal values may be shown once. Inconclusive results and toxic doses are left out. How the source made its calls: active means survival T/C of 150% or more; inactive means T/C below 125% in these data.

Test system: P388 leukemia ip, CD2F1 mice, survival T/C
Test: NCI In Vivo Anticancer Drug Screen. Data for tumor model P388 Leukemia (intraperitoneal) in CD2F1 (CDF1) mice
Settings: endpoint: median survival time, higher = longer survival
How it was run: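 Mice carrying the transplanted tumor received test compound or vehicle. Survival was recorded in each group, and the value is the treated-group measurement divided by that of the vehicle-treated control group.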

[1] = dose: 100.0 mg/kg/injection, schedule: Q01DX009 (ip), vehicle: saline
[2] = dose: 50.0 mg/kg/injection, schedule: Q01DX005 (ip), vehicle: Klucel (hydroxypropylcellulose) (HPC)
[3] = dose: 100.0 mg/kg/injection, schedule: Q01DX005 (ip), vehicle: Klucel (hydroxypropylcellulose) (HPC)
[4] = dose: 200.0 mg/kg/injection, schedule: Q01DX005 (ip), vehicle: Klucel (hydroxypropylcellulose) (HPC)
[5] = dose: 200.0 mg/kg/injection, schedule: Q01DX009 (ip), vehicle: saline with Tween-80

Measured: T/C

CN1C(=O)CC(=O)N(C)P1(=O)Oc1ccccc1
inactive: dose: 100.0 mg/kg/injection, schedule: Q04DX002 (ip), vehicle: saline 101 % of control | dose: 200.0 mg/kg/injection, schedule: Q04DX002 (ip), vehicle: saline 101 % of control | dose: 400.0 mg/kg/injection, schedule: Q04DX002 (ip), vehicle: saline 101 % of control

Cc1c(-c2ccccc2)ccnc1/C=N/NC(N)=S
inactive: dose: 6.25 mg/kg/injection, schedule: Q01DX009 (ip), vehicle: saline 101 % of control | dose: 12.5 mg/kg/injection, schedule: Q01DX009 (ip), vehicle: saline 120 % of control | dose: 25.0 mg/kg/injection, schedule: Q01DX009 (ip), vehicle: saline 120 % of control | [1] 103 % of control

CC(C)(C)OC(=O)NC(Cc1ccc(O)cc1)C(=O)ON1C(=O)CCC1=O (stereo not drawn)
inactive: [2] 100 % of control | [3] 106 % of control | [4] 108 % of control

Cn1c(=O)c2nncnc2n(C)c1=O
inactive: dose: 25.0 mg/kg/injection, schedule: Q01DX005 (ip), vehicle: saline with Tween-80 96 % of control | dose: 50.0 mg/kg/injection, schedule: Q01DX005 (ip), vehicle: saline with Tween-80 93 % of control | dose: 100.0 mg/kg/injection, schedule: Q01DX005 (ip), vehicle: saline with Tween-80 93 % of control | dose: 200.0 mg/kg/injection, schedule: Q01DX005 (ip), vehicle: saline with Tween-80 94 % of control

Cc1cc(NCCCN(C)C)c2c(ccc3c(NCCCN(C)C)cc(C)nc32)n1
inactive: dose: 6.0 mg/kg/injection, schedule: Q01DX009 (ip), vehicle: suspension in saline 98 % of control | dose: 12.0 mg/kg/injection, schedule: Q01DX009 (ip), vehicle: suspension in saline 104 % of control | dose: 24.0 mg/kg/injection, schedule: Q01DX009 (ip), vehicle: saline with Tween-80 96 % of control | dose: 24.0 mg/kg/injection, schedule: Q01DX009 (ip), vehicle: suspension in saline 115 % of control

O=C1CC(c2ccc(Cl)cc2)OC(c2ccc(Cl)cc2)C1 (stereo not drawn)
inactive: dose: 50.0 mg/kg/injection, schedule: Q01DX009 (ip), vehicle: saline 104 % of control | [1] 102 % of control | dose: 200.0 mg/kg/injection, schedule: Q01DX009 (ip), vehicle: saline 98 % of control

CCCN1CCN(c2ccc([N+](=O)[O-])c3no[n+]([O-])c23)CC1
inactive: dose: 1.25 mg/kg/injection, schedule: Q01DX009 (ip), vehicle: saline 98 % of control and 97 % of control | dose: 2.5 mg/kg/injection, schedule: Q01DX009 (ip), vehicle: saline 100 % of control and 107 % of control | dose: 5.0 mg/kg/injection, schedule: Q01DX009 (ip), vehicle: saline 100 % of control and 108 % of control | dose: 10.0 mg/kg/injection, schedule: Q01DX009 (ip), vehicle: saline 110 % of control and 120 % of control

Cc1c(C)c(C)c(S(=O)(=O)NCCCNS(=O)(=O)c2c(C)c(C)c(C)c(C)c2C)c(C)c1C
inactive: [2] 98 % of control | [3] 94 % of control | [4] 89 % of control

COc1cccc2c1C(=O)c1c(O)c3c(c(O)c1C2=O)CC(O)(C(=O)CBr)CC3OC(C)=O (stereo not drawn)
inactive: dose: 1.56 mg/kg/injection, schedule: Q01DX009 (ip), vehicle: other 109 % of control | dose: 3.13 mg/kg/injection, schedule: Q01DX009 (ip), vehicle: other 103 % of control | dose: 6.25 mg/kg/injection, schedule: Q01DX009 (ip), vehicle: other 105 % of control | dose: 12.5 mg/kg/injection, schedule: Q01DX009 (ip), vehicle: other 113 % of control | dose: 25.0 mg/kg/injection, schedule: Q01DX009 (ip), vehicle: other 109 % of control

O=C1N(c2cccc(F)c2)C(=O)N1c1cccc(F)c1
inactive: dose: 50.0 mg/kg/injection, schedule: Q01DX009 (ip), vehicle: saline with Tween-80 115 % of control | dose: 100.0 mg/kg/injection, schedule: Q01DX009 (ip), vehicle: saline with Tween-80 100 % of control | [5] 98 % of control

NC(CSSCC(N)C(=O)O)C(=O)O (stereo not drawn)
inactive: dose: 50.0 mg/kg/injection, schedule: Q01DX009 (ip), vehicle: Klucel (hydroxypropylcellulose) (HPC) 105 % of control | dose: 100.0 mg/kg/injection, schedule: Q01DX009 (ip), vehicle: Klucel (hydroxypropylcellulose) (HPC) 105 % of control | dose: 200.0 mg/kg/injection, schedule: Q01DX009 (ip), vehicle: Klucel (hydroxypropylcellulose) (HPC) 106 % of control

C#Cc1cccc(N=Cc2ccc(C=Nc3cccc(C#C)c3)cc2)c1
inactive: dose: 6.25 mg/kg/injection, schedule: Q01DX009 (ip), vehicle: saline with Tween-80 104 % of control | dose: 12.5 mg/kg/injection, schedule: Q01DX009 (ip), vehicle: saline with Tween-80 112 % of control | dose: 25.0 mg/kg/injection, schedule: Q01DX009 (ip), vehicle: saline with Tween-80 86 % of control | [5] 88 % of control
